Source: patent US20170367330A1, “Method for stimulating induced insect resistance of rice” (ZHENJIANG UNIVERSITY, priority 2015, published 2017)

Columns and labels:
Type in all cases: in vivo
[1] = tested on: Third-instar nymphs of the white-backed planthopper; experiment: Contact toxicity, spotting on third-instar nymphs; details: for survival rates of the nymphs of the planthoppers: spotted 1 μL
Experimental: In the experiment for measuring the contact toxicity of the p-Fluorophenoxyacetic acid on the nymphs of the rice planthoppers, the p-Fluorophenoxyacetic acids respectively having concentrations of 5 mg/L, 20 mg/L, and 50 mg/L are adopted, and distilled water not containing the p-Fluorophenoxyacetic acid is adopted as a control group. Third-instar nymphs of the white-backed planthopper, being narcotized by carbon dioxide, are spotted with the p-Fluorophenoxyacetic acid having the corresponding concentration or the distilled water (1 μL for each planthopper); after waking up, the planthoppers are fed on rice plants having an age of 30 days, wherein 15 planthoppers are fed on each rice plant; and the rice is placed in a phytotron with a temperature of 28±2° C., a humidity of 70-80% and 14 hours of illumination. The experiment is repeated for 10 times. Survival numbers of the nymphs of the planthoppers are observed and recorded respectively 24 hours and 48 hours after treatment.

[2] = tested on: nymphs of the brown planthopper; experiment: Spray treatment of rice stems and leaves, survival of brown planthopper nymphs; details: for survival rate of the brown planthopper: 8th day
Experimental: (§1) According to the second preferred embodiment of the present invention, the applied p-Fluorophenoxyacetic acids have concentrations of 20 mg/L and 100 mg/L. The rice is cultivated through the nutrient solution, and planted by each individual rice plant; the p-Fluorophenoxyacetic acid is prepared with water to have a certain concentration (20 mg/L or 100 mg/L), and thereafter stems and leaves of the rice are treated with spraying through a small sprayer; and tap water is adopted as a control group. After drops on the stems and leaves of the rice are totally dry, a special glass cover (with a diameter of 4 cm, a height of 8 cm, and 48 holes having a diameter of 0.8 mm uniformly provided on a wall) is placed on a stem of each individual rice plant, and 15 newly-hatched nymphs of the brown planthopper or the white-backed planthopper are introduced into each glass cover, wherein a top part of each glass cover is sealed by a circular sponge. The experiment is conducted in a phytotron with a temperature of 28±2° C., a humidity of 70-80% and 14 hours of illumination, survival numbers of the nymphs of the brown planthopper and the white-backed planthopper on each plant are recorded daily, and the experiment is repeated for 10 times.

[3] = tested on: nymphs of the brown planthopper; experiment: Root absorption treatment of rice, survival of brown planthopper nymphs; details: for survival rate of the brown planthopper: 8th day
Experimental: (§2) According to the first preferred embodiment of the present invention, the applied p-Fluorophenoxyacetic acids have concentrations of 1 mg/L and 10 mg/L. The rice is cultivated through the nutrient solution, and planted by each individual rice plant; the p-Fluorophenoxyacetic acid is added into the nutrient solution until a final concentration is 1 mg/L or 10 mg/L; and the nutrient solution without adding the p-Fluorophenoxyacetic acid is adopted as a control group. After treating with the p-Fluorophenoxyacetic acid for 12 hours, a special glass cover (with a diameter of 4 cm, a height of 8 cm, and 48 holes having a diameter of 0.8 mm uniformly provided on a wall) is placed on a stem of each individual rice plant, and 15 newly-hatched nymphs of the brown planthopper or the white-backed planthopper are introduced into each glass cover, wherein a top part of each glass cover is sealed by a circular sponge. The experiment is conducted in a phytotron with a temperature of 28±2° C., a humidity of 70-80% and 14 hours of illumination, survival numbers of the nymphs of the brown planthopper or the white-backed planthopper on each plant are recorded daily, and the experiment is repeated for 10 times.

[4] = tested on: nymphs of the white-backed planthopper; experiment: Spray treatment of rice stems and leaves, survival of white-backed planthopper nymphs
Experimental: as §1

[5] = tested on: nymphs of the white-backed planthopper; experiment: Stomach toxicity in planthopper artificial diet; details: for survival rate of the nymphs of the white-backed planthopper: artificial diet
From the text: In order to exclude possible influences of the p-Fluorophenoxyacetic acid itself on a survival rate of nymphs of the rice planthoppers, the third preferred embodiment of the present invention measures stomach toxicity and contact toxicity of the p-Fluorophenoxyacetic acids having different concentrations on the nymphs of the rice planthoppers. In the experiment for measuring the stomach toxicity of the p-Fluorophenoxyacetic acid on the nymphs of the rice planthoppers, the p-Fluorophenoxyacetic acids, having concentrations of 5 mg/L, 20 mg/L and 50 mg/L, are respectively added into planthopper artificial diets, and another planthopper artificial diet not containing the p-Fluorophenoxyacetic acid is adopted as control. The planthopper artificial diets containing the p-Fluorophenoxyacetic acids of different concentrations are respectively wrapped by a Parafilm sealing film and then placed at two ends (20 μL at one end) of a glass two-way tube having a diameter of 4 cm and a height of 8 cm, and 15 newly-hatched nymphs of the white-backed planthopper are introduced into each tube; wherein the glass two-way tube, in which the planthopper artificial diet not containing the p-Fluorophenoxyacetic acid is placed, is adopted as a control group. All the glass two-way tubes are placed in a phytotron (with a temperature of 28° C. and 12 hours of illumination), the artificial diet in each tube is changed once a day, and the survival number of the nymphs of the white-backed planthopper in each tube is recoded daily. The experiment is repeated for 10 times.

[6] = tested on: contents of 4-hydroxybenzoic acid and γ-aminobutyric acid in the rice; experiment: Induced mechanism: contents of defense compounds in rice after root treatment; details: 5 mg/L in nutrient solution, 72 hours after treating
Experimental: According to the fourth preferred embodiment of the present invention, the applied p-Fluorophenoxyacetic acid has a concentration of 5 mg/L. The rice is cultivated through the nutrient solution, and planted by each individual rice plant; the p-Fluorophenoxyacetic acid is added into the nutrient solution of the rice until a final concentration is 5 mg/L, and another nutrient solution without adding the p-Fluorophenoxyacetic acid is adopted as a control group. The experiment is repeated for 5 times and conduced in a phytotron with a temperature of 28±2° C., a humidity of 70-80%, and 14 hours of illumination. […] The 4-hydroxybenzoic acid belongs to a phenolic acid defense compound, and the γ-aminobutyric acid belongs to a non-protein amino acid, which have direct toxicity effects on the insect pests and are able to influence a peripheral nervous system of the insects. Treating the rice with the p-Fluorophenoxyacetic acid is able to increase contents of the defense compounds, thereby generating a negative effect on the insect pests and increasing a resistance of the rice against the insect pests.

[7] = tested on: nymphs of the white-backed planthopper; experiment: Root absorption treatment of rice, survival of white-backed planthopper nymphs
Experimental: as §2

[8] = from the 2nd day after treating, FIG. 2

`O=C(O)COc1ccc(F)cc1` [p-Fluorophenoxyacetic acid] was tested, and the “survival rates of the nymphs of the planthoppers” value ([1]; 5 mg/L, 24 hours after treating) was 92.0%, the “survival rates of the nymphs of the planthoppers” value ([1]; 5 mg/L, 48 hours after treating) was 92.0% and the “survival rates of the nymphs of the planthoppers” value ([1]; 20 mg/L, 24 hours after treating) was 93.1%. For the same molecule, the “survival rates of the nymphs of the planthoppers” value ([1]; 20 mg/L, 48 hours after treating) was 91.6%, the “survival rates of the nymphs of the planthoppers” value ([1]; 50 mg/L, 24 hours after treating) was 92.0% and the “survival rates of the nymphs of the planthoppers” value ([1]; 50 mg/L, 48 hours after treating) was 90.8%. For the same molecule, the “contact toxicity on the planthoppers” value ([1]; spotted 1 μL, 5, 20 and 50 mg/L) was “no contact toxicity”, the “survival rate of the brown planthopper” value ([2]; 20 mg/L) was 60.3% and the “survival rate of the brown planthopper” value ([2]; 100 mg/L) was 19.2%. The “survival rates of the nymphs of the brown planthopper, course” value [2, 8] was “decreased obviously”, the “survival rate of nymphs of the rice planthoppers, maximum decrease” value ([3]; general statement in the summary, rice planthoppers, concentration not given) was “below 10%” and the “survival rate of the brown planthopper” value ([3]; root absorption, 1 mg/L in nutrient solution) was 35.1%. The “survival rate of the brown planthopper” value ([3]; root absorption, 10 mg/L in nutrient solution) was 1.5%, the “survival rates of the nymphs of the brown planthopper, course” value ([3]; root absorption, from the 2nd day after treating, FIG. 1) was “decreased obviously” and the “survival rate of the white-backed planthopper” value ([4]; 20 mg/L, 8th day) was 66.1%. For the same molecule, the “survival rate of the white-backed planthopper nymphs” value ([4]; 100 mg/L, 8th day) was 23.2%, the “survival rates of the nymphs of the white-backed planthopper, course” value [4, 8] was “decreased obviously” and the “survival rate of the nymphs of the white-backed planthopper” value ([5]; 5 mg/L, 2nd day) was 85.5%. The “survival rate of the nymphs of the white-backed planthopper” value ([5]; 5 mg/L, 4th day) was 58.6%, the “survival rate of the nymphs of the white-backed planthopper” value ([5]; 20 mg/L, 2nd day) was 87.4% and the “survival rate of the nymphs of the white-backed planthopper” value ([5]; 20 mg/L, 4th day) was 54.3%. For the same molecule, the “survival rate of the nymphs of the white-backed planthopper” value ([5]; 50 mg/L, 2nd day) was 81.3%, the “survival rate of the nymphs of the white-backed planthopper” value ([5]; 50 mg/L, 4th day) was 57.6% and the “stomach toxicity on the planthoppers” value ([5]; artificial diet, 5, 20 and 50 mg/L) was “no stomach toxicity”. The “content of the 4-hydroxybenzoic acid of the experimental group versus the control group” value [6] was 2.12 times, the “content of the γ-aminobutyric acid of the experimental group versus the control group” value [6] was 2.86 times and the “survival rate of the white-backed planthopper” value ([7]; 1 mg/L in nutrient solution, 8th day) was 41.3%. For the same molecule, the “survival rate of white-backed planthopper nymphs” value ([7]; 10 mg/L in nutrient solution, 8th day) was 3.1% and the “survival rates of the nymphs of the white-backed planthopper, course” value ([7]; from the 2nd day after treating, FIG. 1) was “decreased obviously”.
